Reference: ChEMBL document CHEMBL4622951, “Chemical constituents of Callistemon citrinus from Egypt and their antiausterity activity against PANC-1 human pancreatic cancer cell line” (2020)
Active and inactive are the calls of the source. The rule behind the calls is not given here.

Legend:
PANC-1 [1] = test: Cytotoxicity against human PANC1 cells in nutrient-deprived medium; assay type: functional
PANC-1 [2] = test: Inhibition of cell migration of human PANC1 cells at 10 uM measured after 48 hrs by wound healing assay (reference value: 100 %); assay type: functional; conditions: PANC-1, 48 h
PANC-1 [3] = test: Inhibition of cell migration of human PANC1 cells at 10 uM measured after 12 hrs by wound healing assay (reference value: 73 %); assay type: functional; conditions: PANC-1, 12 h
PANC-1 [4] = test: Inhibition of cell migration of human PANC1 cells at 10 uM measured after 24 hrs by wound healing assay (reference value: 46 %); assay type: functional; conditions: PANC-1, 24 h
PANC-1 [5] = test: Inhibition of cell migration of human PANC1 cells at 20 uM measured after 24 hrs by wound healing assay (reference value: 46 %); assay type: functional; conditions: PANC-1, 24 h
PANC-1 [6] = test: Inhibition of cell migration of human PANC1 cells at 20 uM measured after 48 hrs by wound healing assay (reference value: 100 %); assay type: functional; conditions: PANC-1, 48 h
PANC-1 [7] = test: Inhibition of cell migration of human PANC1 cells measured upto 48 hrs by wound healing assay; assay type: functional, cell-based
PANC-1 [8] = test: Inhibition of cell migration of human PANC1 cells at 20 uM measured after 12 hrs by wound healing assay (reference value: 73 %); assay type: functional; conditions: PANC-1, 12 h
PANC-1 [9] = test: Induction of apoptosis in human PANC1 cells assessed as decrease in membrane integrity at 1 nM incubated for 24 hrs by ethidium bromide and acridine orange based phase contrast microscopy analysis; assay type: functional, cell-based
PANC-1 [10] = test: Inhibition of colony formation of human PANC1 cells at 2.5 to 10 uM incubated for 24 hrs followed by compound washout and subsequent incubation for 10 days by crystal violet staining based assay; assay type: functional, cell-based
PANC-1 [11] = test: Inhibition of cell migration of human PANC1 cells at 20 uM measured after 36 hrs by wound healing assay (reference value: 100 %); assay type: functional; conditions: PANC-1, 36 h
PANC-1 [12] = test: Inhibition of cell migration of human PANC1 cells at 10 uM measured after 36 hrs by wound healing assay (reference value: 100 %); assay type: functional; conditions: PANC-1, 36 h

CC1(C)CC[C@]2(CO)CC[C@]3(C)C(=CC[C@@H]4[C@@]5(C)CC[C@H](O)C(C)(C)[C@@H]5CC[C@]43C)[C@@H]2C1 [ERYTHRODIOL]
PC50 (PANC-1 [1]): 0.2 µM

CC(C)CC(=O)c1c(O)c2c(c([C@H](C3=C(O)C(C)(C)C(=O)C(C)(C)C3=O)C(C)C)c1O)O[C@]1(C)C=C[C@@H](C(C)C)C[C@H]21
inhibition at 10 µM (PANC-1 [2]): 65%
inhibition at 10 µM (PANC-1 [3]): 87%
inhibition at 10 µM (PANC-1 [4]): 76%
inhibition at 20 µM (PANC-1 [5]): 94%
inhibition at 20 µM (PANC-1 [6]): 80%
inhibition (PANC-1 [7]): Dose-dependent effect
inhibition at 20 µM (PANC-1 [8]): 96%
Activity (PANC-1 [9]): Active
inhibition (PANC-1 [10]): Active
inhibition at 20 µM (PANC-1 [11]): 89%
inhibition at 10 µM (PANC-1 [12]): 67%

CC(=O)[C@@H]1CC[C@]2(C(=O)O)CC[C@]3(C)[C@H](CC[C@@H]4[C@@]5(C)CC[C@H](O)C(C)(C)[C@@H]5CC[C@]43C)[C@@H]12 [PLATANIC ACID]
PC50 (PANC-1 [1]): 14.2 µM

C=C(C)[C@@H]1CC[C@]2(C(=O)O)CC[C@]3(C)[C@H](CC[C@@H]4[C@@]5(C)CC[C@H](O)C(C)(C)[C@@H]5CC[C@]43C)[C@@H]12 [BETULINIC ACID]
PC50 (PANC-1 [1]): 15.2 µM

C=C(C)[C@@H]1CC[C@]2(CO)CC[C@]3(C)[C@H](CC[C@@H]4[C@@]5(C)CC[C@H](O)C(C)(C)[C@@H]5CC[C@]43C)[C@@H]12 [BETULIN]
PC50 (PANC-1 [1]): 0.7 µM

C[C@H]1[C@H](C)CC[C@]2(CO)CC[C@]3(C)C(=CC[C@@H]4[C@@]5(C)CC[C@H](O)C(C)(C)[C@@H]5CC[C@]43C)[C@H]12 [UVAOL]
PC50 (PANC-1 [1]): 5.2 µM

C[C@H]1[C@H](C)CC[C@]2(C(=O)O)CC[C@]3(C)C(=CC[C@@H]4[C@@]5(C)CC[C@H](O)C(C)(C)[C@@H]5CC[C@]43C)[C@H]12 [URSOLIC ACID]
PC50 (PANC-1 [1]): 13.7 µM

COc1cc(C[C@H]2C(=O)OC[C@@H]2Cc2ccc(OC)c(OC)c2)ccc1O [ARCTIGENIN]
PC50 (PANC-1 [1]): 0.7 µM

CC1(C)CC[C@]2(C(=O)O)CC[C@]3(C)C(=CC[C@@H]4[C@@]5(C)CC[C@H](O)C(C)(C)[C@@H]5CC[C@]43C)[C@@H]2C1 [OLEANOLIC_ACID]
PC50 (PANC-1 [1]): 20.5 µM

C[C@@H]1CC[C@@]23CC[C@]4(C)[C@@](C=C[C@@H]5[C@@]6(C)CC[C@H](O)C(C)(C)[C@@H]6CC[C@]54C)(OC2=O)C3[C@H]1C (stereo not given in full)
PC50 (PANC-1 [1]): 0.4 µM
